Where two headings read alike, the source gives them in different places.
Tests used:
[1] = system: MDA-MB-435; test: cells; conditions: Homo sapiens, MDA-MB-435, 48 h
[2] = system: UACC-257; test: cells; conditions: Homo sapiens, UACC-257, 48 h
[3] = system: MDA-MB-231; test: cells; conditions: Homo sapiens, MDA-MB-231, 48 h
[4] = system: Sixty human tumor cell lines; test: cells; conditions: 48 h
[5] = system: T-47D; test: cells; conditions: Homo sapiens, T47D, 48 h
[6] = system: SK-MEL-5; test: cells; conditions: Homo sapiens, SK-MEL-5, 48 h, read-out: Median Growth Inhibitory Concentration (GI50)
[7] = system: TK-10; test: cells; conditions: Homo sapiens, TK-10, 48 h
[8] = system: HL-60 (TB); test: cells; conditions: Homo sapiens, HL-60, 48 h
[9] = system: KM12; test: cells; conditions: Homo sapiens, KM12, 48 h
[10] = system: NCI-H23; test: cells; conditions: Homo sapiens, NCI-H23, 48 h
[11] = system: COLO 205; test: cells; conditions: Homo sapiens, COLO 205, 48 h
[12] = system: A549; test: cells; conditions: Homo sapiens, A549, 48 h
[13] = system: U251; test: cells; conditions: Homo sapiens, U-251, 48 h
[14] = system: SF-539; test: cells; conditions: Homo sapiens, SF-539, 48 h
[15] = system: MCF-7; test: cells; conditions: Homo sapiens, MCF7, 48 h
[16] = system: HS 578T; test: cells; conditions: Homo sapiens, 48 h
[17] = system: Sixty human tumor cell lines; conditions: NCI Anti-Tumor Screen, several cell types
[18] = system: SNB-19; test: cells; conditions: Homo sapiens, SNB-19, 48 h
[19] = system: SK-OV-3; test: cells; conditions: Homo sapiens, SK-OV-3, 48 h
[20] = system: SR; test: cells; conditions: Homo sapiens, 48 h
[21] = system: EKVX; test: cells; conditions: Homo sapiens, 48 h
[22] = system: CCRF-CEM; test: cells; conditions: Homo sapiens, 48 h, read-out: Median Growth Inhibitory Concentration (GI50)
[23] = system: SW-620; test: cells; conditions: Homo sapiens, SW-620, 48 h
[24] = system: HCT-116; test: cells; conditions: Homo sapiens, HCT-116, 48 h
[25] = system: NCI-H522; test: cells; conditions: Homo sapiens, NCI-H522, 48 h
[26] = system: NCI-H226; test: cells; conditions: Homo sapiens, NCI-H226, 48 h
[27] = system: RPMI-7951 human melanoma; test: Neutral Red Assay, cell viability, RPMI-7951; conditions: Homo sapiens
Procedure: RPMI-795 1, MDA-MB-231 and MDA-MB-435 cell lines were cultured in MEM-alpha medium (GIBCO-BRL, Long Island, N.Y.) containing 10% fetal bovine serum (RPMI-7951, MDA-MB-231) or 5% FBS (MDA-MB-435) at 37° C. and under 5% CO2/95% air. […] The cells were cultured in 48 well plates in all of the experiments described.
Neutral Red Assay was utilized to determine the effect of the compounds of the present invention on cell viability. Neutral Red was purchased from GIBCO-BRL (Long Island, N.Y.). Cells were plated at a concentration of 20,000 cells/well and cultured overnight. Compounds or vehicle (DMSO 0.1%) were then added and the plates were incubated for 72 hours. Supernatant from each well was either aspirated or collected and media containing Neutral Red (GIBCO-BRL, Long Island, N.Y.) at a concentration of 15 μl/ml was then added to each well. The plates were then incubated at 37° C. for 30 minutes. Next, the cells were washed with twice with PBS and alcoholic-HCl (0.5N—HCl/35% ethanol) was added to each well. The plates were then placed on a plate shaker until all residues were solubilized (pink color). The solubilized mixtures were then transferred to a 96 well plate and the absorbances were read on a micro-test plate reader at a wavelength of 570 nm.
Cell viability was determined by Neutral Red Assay.

[28] = system: SK-MEL-2; test: cells; conditions: Homo sapiens, SK-MEL-2, 48 h
[29] = system: 786-0; test: cells; conditions: Homo sapiens, 786-0, 48 h
[30] = read-out: Median Growth Inhibitory Concentration (GI50)
[31] = read-out: Median Lethal Concentration (LC50)
[32] = RPMI-7951, 72 h, read-out: Neutral Red Uptake, %
[33] = RPMI-7951, read-out: Cell Viability

SMILES: O=C1C(=Cc2ccccc2O)CCCC1=Cc1ccccc1O [EF4, 2,6Bis(2-hydroxybenzylidene)cyclohexanone]
- GI50 [1, 30]: 1.8 µM
- CC50 [1, 31]: 8 µM
- GI50 [2, 30]: 2.9 µM
- CC50 [2, 31]: 57.8 µM
- GI50 [3, 30]: 3.5 µM
- CC50 [3, 31]: > 100 µM
- GI50 ([4]; read-out: Median Growth Inhibitory Concentration (GI50), Mean): 2.4 µM
- CC50 ([4]; read-out: Median Lethal Concentration (LC50), Mean): 33.9 µM
- GI50 [5, 30]: 1.7 µM
- CC50 [5, 31]: 50.8 µM
- GI50 [6]: 1.6 µM
- GI50 [7, 30]: 3 µM
- CC50 [7, 31]: 22.6 µM
- GI50 [8, 30]: 1.9 µM
- CC50 [8, 31]: 53.5 µM
- GI50 [9, 30]: 1.6 µM
- CC50 [9, 31]: 6.5 µM
- GI50 [10, 30]: 1.8 µM
- CC50 [10, 31]: 9.4 µM
- GI50 [11, 30]: 2 µM
- CC50 [11, 31]: 8.7 µM
- GI50 [12, 30]: 2.6 µM
- CC50 [12, 31]: > 100 µM
- GI50 [13, 30]: 2 µM
- CC50 [13, 31]: 18.5 µM
- GI50 [14, 30]: 2 µM
- CC50 [14, 31]: 24.7 µM
- GI50 [15, 30]: 2.7 µM
- CC50 [15, 31]: 44.1 µM
- GI50 [16, 30]: 5.1 µM
- CC50 [16, 31]: > 100 µM
- GI50 compared with CISPLATIN, in words [17]: lower GI50 than the chemotherapeutic agent CISPLATIN for several cell types
- LC50 compared with CISPLATIN, in words [17]: lower LC50 than the chemotherapeutic agent CISPLATIN for several cell types
- GI50 [18, 30]: 3.2 µM
- CC50 [18, 31]: 42.3 µM
- GI50 [19, 30]: 6.7 µM
- CC50 [19, 31]: 63.6 µM
- GI50 [20, 30]: 1.6 µM
- CC50 [20, 31]: > 100 µM
- GI50 [21, 30]: 2.3 µM
- CC50 [21, 31]: 37.2 µM
- GI50 [22]: 1.4 µM
- GI50 [23, 30]: 2.7 µM
- CC50 [23, 31]: 76.3 µM
- GI50 [24, 30]: 2.2 µM
- CC50 [24, 31]: 13.2 µM
- GI50 [25, 30]: 2.9 µM
- CC50 [25, 31]: > 100 µM
- GI50 [26, 30]: 19 µM
- CC50 [26, 31]: > 100 µM
- viability at 5 µM [27, 32]: 98%
- viability at 20 µM [27, 32]: 4%
- viability at 5 µM [27, 33]: 102%
- viability at 20 µM [27, 33]: 38%
- GI50 [28, 30]: 2.4 µM
- CC50 [28, 31]: 25.3 µM
- GI50 [29, 30]: 2.3 µM
- CC50 [29, 31]: 15.9 µM

Reference: patent US7371766B2, “Curcumin analogs with anti-tumor and anti-angiogenic properties” (Emory University, priority 1999, dated 2008)
